What was measured:
presenilin/γ-secretase [1] = target: T1, presenilin/γ-secretase (Homo sapiens, UniProt P49768); test: Multiple substrate cell-free assay system combining βAPP and Notch-1 (IP/MALDI-TOF MS of Aβ, AICD, F-Nβ, NICDΔC); assay type: biochemical
T1 construct: A crude purified membrane fraction of K293 cells co-expressing F-NEXTΔC and swβAPP; endogenous in cells; host or cells: K293 (human embryonic kidney 293) cells co-expressing F-NEXTΔC and swβAPP; crude membrane fraction (CMF)
Procedure: In the case of cell-free γ-secretase assay, MS washing buffer composed of 4 time amount or more of 0.1% n-octylglucoside, 140 mM NaCl, 10 mM Tris (pH 8.0) and 0.025% sodium azide was added to an S1 or S2 fraction which was the supernatant of ultracentrifugation after the assay. The mixture was immunoprecipitated at 4° C. for 4 hours using 6636, 6618, 4G8 or M2 agarose. After the immunoprecipitation, the precipitate was washed three times at 4° C. for 10 minutes using the MS washing buffer. The precipitate was washed once more with 10 mM Tris (pH 8.0) containing 0.025% sodium azide, and then simply washed once more with water. A peptide bound to the specific antibody in the precipitate consequently obtained was eluted with TFA/acetonitrile/water (TFA: acetonitrile: water=1:20:20) saturated with α-cyano-4-hydroxy cinnamic acid. The solubilized sample was dried on a stainless plate, and analyzed by MALDI-TOF MS. MS peaks were calibrated by angiotensin (Sigma) and insulin β chain (Sigma).
Human embryonic kidney 293 cells (K293 cells) in which F-NEXTΔC and Sweden type mutant βAPP (swβAPP) had been constitutively co-expressed were made by transfecting with the Sweden type mutant βAPP using Lipofectamine 2000 (Invitrogen), selecting by G418 and subsequently, transfecting the cells expressing βAPP with F-NEXTΔC. It was confirmed first that F-NEXTΔC and swβAPP had been expressed in the lysate of this cell, and simultaneously that F-Nβ and Aβ had been released in the culture supernatant (FIG. 5A to 5C). The composition of F-Nβ and Aβ molecular species were examined and it was confirmed that they were not inconsistent with previous reports (results are not shown).
A crude purified membrane fraction of K293 cells co-expressing F-NEXTΔC and swβAPP, pretreated with 100 nM of L685,458 or 100 nM of DAPT for 2 hours before extracting the membrane fraction was used. The S1-40 min fraction was collected from this crude purified membrane fraction. The precipitate fraction after collecting the S1-40 min fraction was resuspended in the reaction buffer, and then sonicated for a short time. Subsequently the fraction was centrifuged at 100,000×g for 15 minutes to collect the supernatant fraction as the S2-40 min fraction.
The fractions were immunoprecipitated with the antibody specific for each fragment (4G8 for Aβ, 6618 for AICD, M2 agarose for F-Nβ and […] for NICDΔC), and analyzed using the MALDI-TOF mass analyzer (FIG. 8). NICDΔC and AICD de novo produced were identified in the S1-40 min fraction. F-Nβ and Aβ were identified in the S2-40 min fraction (FIG. 8). Even when the change was added to the multiple substrate cell-free assay system combining βAPP and Notch-1, the diversity in the proteolytic sites by the presenilin/γsecretase was conserved.
The cells co-expressing F-NEXTΔC and swβAPP were cultured up to the confluent phase, and treated with the γ-secretase inhibitor at each concentration for 3 hours. As the γ-secretase inhibitor, L685,458 which was a transition-state analogue which binds to an active center of the presenilin/γ-secretase and DAPT which was not the transition-state analogue were used. The cells after the treatment were washed twice with ice-cooled PBS to collect. These cells were lysed and homogenated to extract CMF. Subsequently, this membrane fraction was suspended in alkaline washing buffer and left stand at 4° C. for 30 minutes. Then, the resuspension and the centrifugation were repeated three times using the reaction buffer to wash out the alkaline washing buffer. It appears that most γ-secretase inhibitor contained in CMF was washed out until this process. Finally, CMF was suspended once more in the reaction buffer, and the cell-free reaction was performed. The amounts of AICD and NICDΔC in the S1-40 min fraction and the amounts of Aβ and Nβ in the S2-40 min fraction were semi-quantified from relative heights of MALDI-TOF MS peaks, and evaluated by four scales of −, +, ++ and +++.

presenilin/γ-secretase [2] = target: T1, presenilin/γ-secretase; test: Pulse-chase experiment: secretion of F-Nβ from K293 cells expressing F-NEXTΔC or F-NEXT; assay type: cell-based; conditions: 1 μM, pretreating for 2 hours (FIG. 4D)
Procedure: In order to determine whether an N terminal fragment (NTF: F-Nβ) was released from the cells which had expressed F-NEXTΔC or F-NEXT as a result of proteolysis by presenilin/γ-secretase, the cells (K293 cells) which had stably expressed F-NEXTΔC or F-NEXT were cultured in a 10 cm dish up to a confluent phase. The cells were cultured in DMEM solution deprived of methionine (obtained by modifying a commercially available one from Gibco) for 45 minutes to be starved with methionine. Subsequently, the medium was replaced with the same DMEM solution deprived of methionine, and simultaneously the cells were metabolically pulse-labeled with 300 μCi of [^35S]-methionine/cysteine (Pro-mix, Amersham) for 30 minutes. Then the cells were chased in 10% FCS/DMEM for 2 hours.
After termination of a chase period, the medium was collected and immediately placed on ice. Then cell debris was eliminated by centrifuging at 3,000×g. Subsequently, a protease inhibitor cocktail (1:1000, Sigma) and 0.025% sodium azide were added. The sample was immunoprecipitated with 4G8 antibody or anti-FLAG-M2-agarose (Sigma) overnight, and a precipitate was washed three times with RIPA buffer containing 0.1% SDS, 0.5% deoxycholic acid and 1% Triton X-100. Subsequently, SDS-PAGE was performed using 10 to 20% gradient gel of Tris-tricine (Invitrogen). […]

presenilin/γ-secretase [3] = target: T1, presenilin/γ-secretase; test: Multiple substrate cell-free assay system combining βAPP and Notch-1 (IP/MALDI-TOF MS of Aβ, AICD, F-Nβ, NICDΔC); assay type: biochemical; conditions: cells pretreated at 1 μM and further 1 μM added in all buffers including homogenate and reaction buffer
[4] = pretreated at 1 μM, thoroughly washed out

FLAG-NEXT, sequence (chain, as listed by the source): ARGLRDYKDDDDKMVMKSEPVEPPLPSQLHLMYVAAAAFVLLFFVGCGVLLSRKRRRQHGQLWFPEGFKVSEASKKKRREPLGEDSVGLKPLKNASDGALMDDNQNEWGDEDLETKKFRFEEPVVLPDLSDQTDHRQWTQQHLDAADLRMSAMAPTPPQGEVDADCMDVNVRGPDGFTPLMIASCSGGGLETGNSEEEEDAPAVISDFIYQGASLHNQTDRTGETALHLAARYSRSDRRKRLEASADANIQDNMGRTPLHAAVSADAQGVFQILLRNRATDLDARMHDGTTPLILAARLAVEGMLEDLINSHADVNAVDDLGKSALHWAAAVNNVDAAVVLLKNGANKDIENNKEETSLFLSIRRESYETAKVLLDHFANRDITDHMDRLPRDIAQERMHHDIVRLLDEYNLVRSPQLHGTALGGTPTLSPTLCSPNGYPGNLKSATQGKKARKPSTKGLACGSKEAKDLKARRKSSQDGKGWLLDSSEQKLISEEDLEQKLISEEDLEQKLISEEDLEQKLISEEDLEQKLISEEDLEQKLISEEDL

“PS1 D385N, dominant negative mutant of presenilin, stably expressed in K293 cells” was tested, and the “NICD production and decrease of the F-NEXT derivative after 2 hours' chase” value (F-NEXT V1744G) was “not only the NICD production but also the decrease of F-NEXT and its derivatives were not observed after 2 hours' chase”, the “NICD production and decrease of the F-NEXT derivative after 2 hours' chase” value (F-NEXT V1744L) was “not only the NICD production but also the decrease of F-NEXT and its derivatives were not observed after 2 hours' chase” and the “NICD production and decrease of F-NEXT after 2 hours' chase” value (FLAG-NEXT) was “not only the NICD production but also the decrease of F-NEXT and its derivatives were not observed after 2 hours' chase”.
“wild type PS1 (presenilin), stably expressed in K293 cells” was tested, and the “degradation of the F-NEXT derivative during 2 hours' chase” value (F-NEXT V1744G) was “F-NEXT V1744G and F-NEXT V1744L in the background of wild presenilin were degraded and their amounts were decreased during 2 hours' chase as with F-NEXT” and the “degradation of the F-NEXT derivative during 2 hours' chase” value (F-NEXT V1744L) was “F-NEXT V1744G and F-NEXT V1744L in the background of wild presenilin were degraded and their amounts were decreased during 2 hours' chase as with F-NEXT”.
C[C@H](NC(=O)Cc1cc(F)cc(F)c1)C(=O)N[C@H](C(=O)OC(C)(C)C)c1ccccc1 [DAPT] was tested, and the “action on γ49 and corresponding S3 cleavage” value (presenilin/γ-secretase [1]) was “less sensitively”, the “action upon γ40 and corresponding S4 cleavage” value (presenilin/γ-secretase [1]) was “acted sensitively” and the “effects on the four fragments compared with L685,458” value (presenilin/γ-secretase [1]; same pretreatment experiment (FIGS. 9A and 9B)) was “extremely similar”.
With CC(C)C[C@H](NC(=O)[C@H](Cc1ccccc1)C[C@@H](O)[C@H](Cc1ccccc1)NC(=O)OC(C)(C)C)C(=O)N[C@@H](Cc1ccccc1)C(N)=O [L685,458] the “secretion of F-Nβ” value (presenilin/γ-secretase [2]) was “almost completely inhibited”, the “action on γ49 and corresponding S3 cleavage” value (presenilin/γ-secretase [1]) was “less sensitively” and the “action upon γ40 and corresponding S4 cleavage” value (presenilin/γ-secretase [1]) was “acted sensitively”. The “Aβ/Nβ, γ cleaved NTF (S4/γ40 cleavage)” value (presenilin/γ-secretase [1]; [4]) was “not observed”, the “de novo production of AUCD/NICD which was γ cleaved CTF (S3/γ49 cleavage)” value (presenilin/γ-secretase [1]; [4]) was “recognized” and the “peak heights of four fragments” value (presenilin/γ-secretase [1]; pretreated with 10 nM) was “maximum on average”. For the same compound, the “de novo production of F-Nβ/Aβ” value (presenilin/γ-secretase [1]; pretreatment concentration decreased to 100 nM and 10 nM) was “recovered” and the “production of F-Nβ, Aβ, NICDΔC and AICD (all of four fragments)” value (presenilin/γ-secretase [3]) was “not observed at all”.
